The nature of the test: Binding affinity to HIV wild type integrase. Set-up: species or system Human immunodeficiency virus.

Broadly, the Kd is the constant that tells how readily two partners part at equilibrium. A higher Kd goes with lower affinity. Turning to `[3H]C([3H])([3H])n1c(N2CCCCS2(=O)=O)nc(C(=O)NCc2ccc(F)cc2)c(O)c1=O`, binding was put at a Kd of 21 nM.

Source of the values: ChEMBL document CHEMBL1156506, “Changes to the HIV long terminal repeat and to HIV integrase differentially impact HIV integrase assembly, activity, and the binding of strand transfer inhibitors” (J Biol Chem, 2007).
